Measurements reported in the supplement of paper PMC11061612.

How the values were obtained:
[1] = system: SK-GT-4 (Esophageal Adenocarcinoma); experiment: Bliss excess, mean over the matrix (fraction); higher = more synergy
Summary of the method: (§1)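 Cell lines grown in DMEM/F12 or RPMI with 10% FBS were plated in 1536-well plates and held 24 hours at 37°C, 5% CO2 before 72 hours of exposure to two-drug dose matrices, with DMSO typically at 0.2%. CellTiter-Glo 2.0 luminescence gave viability, which was converted to inhibition. Vehicle wells were set to 0 and blank wells to 1. Combination Emax is the second-highest inhibition in the matrix, and Bliss excess is the observed combination effect minus the expected EA + EB − EA·EB, where EA and EB are the single-agent effects.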

[2] = system: 8505C (Thyroid Gland Carcinoma); experiment: combination Emax (second highest fraction inhibited in the dose matrix, 72 h); higher = more inhibition; extreme values may be limits of the assay
Summary of the method: as §1

[3] = system: CHSA8926 (Chondrosarcoma); experiment: as above
Summary of the method: as §1

[4] = system: COR-L279 (Small Cell Lung Carcinoma); experiment: as above
Summary of the method: as §1

[5] = system: DMS-114 (Small Cell Lung Carcinoma); experiment: as above
Summary of the method: as §1

[6] = system: ESO51 (Esophageal Adenocarcinoma); experiment: as above
Summary of the method: as §1

[7] = system: HCC1187 (Breast Carcinoma); experiment: as above
Summary of the method: as §1

[8] = system: IM-95 (Gastric Carcinoma); experiment: as above
Summary of the method: as §1

[9] = system: KP-3 (Pancreatic Carcinoma); experiment: as above
Summary of the method: as §1

[10] = system: KY821 (Acute Myeloid Leukemia); experiment: as above
Summary of the method: as §1

[11] = system: MN-60 (B-Lymphoblastic Leukemia); experiment: as above
Summary of the method: as §1

[12] = system: NCI-H520 (Squamous Cell Lung Carcinoma); experiment: as above
Summary of the method: as §1

[13] = system: NCI-H661 (Non-Small Cell Lung Carcinoma); experiment: as above
Summary of the method: as §1

[14] = system: PC-3 (Prostate Carcinoma); experiment: as above
Summary of the method: as §1

[15] = system: SK-GT-4 (Esophageal Adenocarcinoma); experiment: as above
Summary of the method: as §1

[16] = system: SNU-398 (Hepatocellular Carcinoma); experiment: as above
Summary of the method: as §1

[17] = system: ST486 (Burkitt's Lymphoma); experiment: as above
Summary of the method: as §1

[18] = system: SU-DHL-5 (B-Cell Non-Hodgkin's Lymphoma); experiment: as above
Summary of the method: as §1

[19] = system: SUP-B15 (B-Lymphoblastic Leukemia); experiment: as above
Summary of the method: as §1

[20] = system: T-T (Esophageal Squamous Cell Carcinoma); experiment: as above
Summary of the method: as §1
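Throughout, for Bliss excess, mean over the matrix: after 72 h of two-drug dosing.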

COc1cccc(OCCCN)c1-c1cc(Nc2cnc(C#N)cn2)n[nH]1 [Prexasertib] + C[C@@H]1COCCN1C2=NC(=NC(=C2)C3(CC3)[S@](=N)(=O)C)C4=C5C=CNC5=NC=C4 [AZD6738] (first compound max 1 µM, 7x7, partner max 10 µM)
Bliss excess [1]: -0.0233
combination Emax [2]: 0.551
combination Emax [3]: 0.361
combination Emax [4]: 0.835
combination Emax [5]: 0.514
combination Emax [6]: 0.779
combination Emax [7]: 0.614
combination Emax [8]: 0.267
combination Emax [9]: 0.456
combination Emax [10]: 1
combination Emax [11]: 0.562
combination Emax [12]: 0.775
combination Emax [13]: 0.744
combination Emax [14]: 0.431
combination Emax [15]: 0.713
combination Emax [16]: 0.437
combination Emax [17]: 0.98
combination Emax [18]: 1
combination Emax [19]: 0.962
combination Emax [20]: 0.742

C=CCn1c(=O)c2cnc(Nc3ccc(N4CCN(C)CC4)cc3)nc2n1-c1cccc(C(C)(C)O)n1 [AZD1775] + C1CN(CCC1(C(=O)N[C@@H](CCO)C2=CC=C(C=C2)Cl)N)C3=NC=NC4=C3C=CN4 [Capivasertib] (first compound max 3 µM, partner max 3 µM)
Bliss excess [1]: -0.0802
combination Emax [2]: 0.741
combination Emax [3]: 0.578
combination Emax [4]: 0.818
combination Emax [5]: 0.649
combination Emax [6]: 0.814
combination Emax [7]: 0.936
combination Emax [8]: 0.655
combination Emax [9]: 0.28
combination Emax [10]: 0.994
combination Emax [11]: 0.555
combination Emax [12]: 0.795
combination Emax [13]: 0.648
combination Emax [14]: 0.394
combination Emax [15]: 0.596
combination Emax [16]: 0.786
combination Emax [17]: 0.971
combination Emax [18]: 0.99
combination Emax [19]: 0.954
combination Emax [20]: 0.618

Cn1cnc2c(F)c(Nc3ccc(Br)cc3Cl)c(C(=O)NOCCO)cc21 [Selumetinib] + C[C@@H]1COCCN1C2=NC(=NC(=C2)C3(CC3)[S@](=N)(=O)C)C4=C5C=CNC5=NC=C4 [AZD6738] (first compound max 10 µM, 7x7, partner max 10 µM)
Bliss excess [1]: 0.017
combination Emax [2]: 0.515
combination Emax [3]: 0.404
combination Emax [4]: 0.626
combination Emax [5]: 0.34
combination Emax [6]: 0.857
combination Emax [7]: 0.636
combination Emax [8]: 0.304
combination Emax [9]: 0.156
combination Emax [10]: 0.944
combination Emax [11]: 0.56
combination Emax [12]: 0.406
combination Emax [13]: 0.396
combination Emax [14]: 0.39
combination Emax [15]: 0.616
combination Emax [16]: 0.742
combination Emax [17]: 0.877
combination Emax [18]: 1
combination Emax [19]: 0.986
combination Emax [20]: 0.292

CC1(C)CCC(CN2CCN(c3ccc(C(=O)NS(=O)(=O)c4ccc(NCC5CCOCC5)c([N+](=O)[O-])c4)c(Oc4cnc5[nH]ccc5c4)c3)CC2)=C(c2ccc(Cl)cc2)C1 [Venetoclax] + COc1cc(Nc2ncc3c(n2)-c2ccc(Cl)cc2C(c2c(F)cccc2OC)=NC3)ccc1C(=O)O [Alisertib] (first compound max 1 µM, 7x7, partner max 10 µM)
Bliss excess [1]: -0.107
combination Emax [2]: 0.275
combination Emax [3]: 0.531
combination Emax [4]: 0.82
combination Emax [5]: 0.555
combination Emax [6]: 0.213
combination Emax [7]: 0.744
combination Emax [8]: 0.412
combination Emax [9]: 0.103
combination Emax [10]: 1
combination Emax [11]: 0.291
combination Emax [12]: 0.54
combination Emax [13]: 0.26
combination Emax [14]: 0.321
combination Emax [15]: 0.444
combination Emax [16]: 0.498
combination Emax [17]: 0.909
combination Emax [18]: 0.803
combination Emax [19]: 1
combination Emax [20]: 0.487

CCc1c2c(nc3ccc(O)cc13)-c1cc3c(c(=O)n1C2)COC(=O)[C@]3(O)CC [SN-38] + O=C(c1cc(Cc2n[nH]c(=O)c3ccccc23)ccc1F)N1CCN(C(=O)C2CC2)CC1 [Olaparib] (first compound max 0.3 µM, 7x7, partner max 10 µM)
Bliss excess [1]: 0.0257
combination Emax [2]: 0.849
combination Emax [3]: 0.452
combination Emax [4]: 1
combination Emax [5]: 0.491
combination Emax [6]: 0.624
combination Emax [7]: 0.467
combination Emax [8]: 0.465
combination Emax [9]: 0.0787
combination Emax [10]: 0.998
combination Emax [11]: 0.858
combination Emax [12]: 0.834
combination Emax [13]: 0.548
combination Emax [15]: 0.4
combination Emax [16]: 0.255
combination Emax [17]: 0.702
combination Emax [18]: 1
combination Emax [20]: 0.835

CS(=O)(=O)CCNCc1ccc(-c2ccc3ncnc(Nc4ccc(OCc5cccc(F)c5)c(Cl)c4)c3c2)o1 [Lapatinib] + Cn1cnc2c(F)c(Nc3ccc(Br)cc3Cl)c(C(=O)NOCCO)cc21 [Selumetinib] (first compound max 10 µM, 7x7, partner max 10 µM)
Bliss excess [1]: 0.0369
combination Emax [4]: 0.811
combination Emax [5]: 0.437
combination Emax [9]: 0.367
combination Emax [11]: 0.204
combination Emax [12]: 0.357
combination Emax [15]: 0.585
combination Emax [17]: 0.825
combination Emax [20]: 0.843
